From patent US20210353573A1, “A SOFT-GEL CAPSULE FORMULATION, METHOD OF MANUFACTURE AND USE THEREOF” (Chanelle Pharmaceuticals Manufacturing Ltd., priority 2018, published 2021)

Test: Excipient compatibility studies (glycerol)
Assay type: physicochemical
Details: mixture with glycerol
Experimental: Various studies were carried out to determine an appropriate capsule shell formulation.

## ibuprofen lysine [ibuprofen lysinate]
  Compatibility with glycerol (colour change indicating degradation): turned brownish
